Literature values as cited in patent US8680143B2, “Orally active curcuminoid compounds” (Laila Pharmaceuticals Pvt. Ltd., priority 2008, dated 2014).

In the case of `O=C(C=Cc1ccc(O)c(O)c1)CC(=O)C=Cc1ccc(O)c(O)c1` [Bis-O-demethylcurcumin, 1,7-bis(3,4-dihydroxyphenyl)-1,6-heptadiene-3,5-dione], the “oral bis-O-demethylcurcumin that enters the plasma” value is given as “less than 1%”.
